# According to ChEMBL document CHEMBL1122370 (J Med Chem, 1983):
# Where “and” joins values, the source holds several entries; their conditions need not be identical. Equal entries are not always repeated.
# Experiments:
# [1] = tested on: L1210; experiment: In vivo antitumor activity against L1210 leukemia in 19 mice measured as median survival range at 15 mg/kg; Value ranges from(13-22); type: functional, Mus musculus
# [2] = tested on: L1210; experiment: (§1) In vivo antitumor activity against L1210 leukemia in 19 mice measured as Increased life span.; type: functional, Mus musculus
# [3] = tested on: L1210; experiment: In vivo antitumor activity against L1210 leukemia in 23 mice measured as Increased life span.; type: functional, Mus musculus
# [4] = tested on: Mus musculus; experiment: Average weight of the mouse after treating with 30 mg/kg dose for 7 days.; type: functional
# [5] = tested on: L1210; experiment: as §1; type: functional, Mus musculus; remark: listed apart in the source
# [6] = tested on: L1210; experiment: In vivo antitumor activity against L1210 leukemia in 16 mice measured as T/C values(days); T/C = 16/9; type: functional, Mus musculus
# [7] = tested on: Mus musculus; experiment: Average weight of the mouse after treating with 60 mg/kg dose for 7 days.; type: functional
# [8] = tested on: L1210; experiment: In vivo anti tumor activity against L1210 leukemia in 23 mice measured as median survival range at 30 mg/kg; Value ranges from(14-23).; type: functional, Mus musculus
# [9] = tested on: L1210; experiment: In vivo antitumor activity against L1210 leukemia in 18 mice measured as T/C values(days); T/C = 18/9; type: functional, Mus musculus
# [10] = tested on: Mus musculus; experiment: Average weight of the mouse after treating with 15 mg/kg dose for 7 days.; type: functional
# [11] = tested on: L1210; experiment: In vivo antitumor activity against L1210 leukemia in 17 mice measured as T/C values(days); T/C = 17/9; type: functional, Mus musculus
# [12] = tested on: L1210; experiment: In vivo anti tumor activity against L1210 leukemia in 19 mice measured as median survival range at 60 mg/kg; Value ranges from(9-28); type: functional, Mus musculus
# [13] = tested on: Mus musculus; experiment: Average weight of the mouse after treating with 15 mg/kg dose for 1 day.; type: functional
# [14] = tested on: L1210; experiment: In vivo antitumor activity against L1210 leukemia in 5 mice measured as median survival range at 30 mg/kg; Value ranges from(17-22).; type: functional, Mus musculus
# [15] = tested on: L1210; experiment: In vivo antitumor activity against L1210 leukemia in 5 mice measured as median survival range at 15 mg/kg; Value ranges from (12-14).; type: functional, Mus musculus
# [16] = tested on: Mus musculus; experiment: Average weight change in mouse after treating with 15 mg/kg dose for 7 days.; type: functional
# [17] = tested on: L1210; experiment: In vivo anti tumor activity against L1210 leukemia in 5 mice measured as Increased life span at 15 mg/kg.; type: functional; conditions: Mus musculus
# [18] = tested on: Mus musculus; experiment: Average weight of the mouse after treating with 30 mg/kg dose for 1 day.; type: functional
# [19] = tested on: Mus musculus; experiment: Average weight of the mouse after treating with 30 mg/kg dose for 7 day.; type: functional
# [20] = tested on: L1210; experiment: In vivo antitumor activity against L1210 leukemia in 5 mice measured as Increased life span at 30 mg/kg.; type: functional; conditions: Mus musculus
# [21] = tested on: L1210; experiment: In vivo antitumor activity against L1210 leukemia in 18 mice measured as T/C values; T/C = 18/9; type: functional, Mus musculus
# [22] = tested on: L1210; experiment: In vivo antitumor activity against L1210 leukemia in 12 mice measured as T/C values; T/C = 12/9; type: functional, Mus musculus
# [23] = tested on: L1210; experiment: In vivo antitumor activity against L1210 leukemia in 5 mice measured as Increased life span at 20 mg/kg.; type: functional; conditions: Mus musculus
# [24] = tested on: L1210; experiment: In vivo antitumor activity against L1210 leukemia in 5 mice measured as Increased life span at 10 mg/kg.; type: functional; conditions: Mus musculus
# [25] = tested on: L1210; experiment: In vivo antitumor activity against L1210 leukemia in 5 mice measured as median survival range at 20 mg/kg; Value ranges from (14-18); type: functional, Mus musculus
# [26] = tested on: L1210; experiment: In vivo antitumor activity against L1210 leukemia in 14 mice measured as T/C values; T/C = 14/9; type: functional, Mus musculus
# [27] = tested on: L1210; experiment: In vivo antitumor activity against L1210 leukemia in 12 mice measured as T/C values(days); T/C = 12/9; type: functional, Mus musculus
# [28] = tested on: Mus musculus; experiment: Average weight of the mouse after treating with 20 mg/kg dose for 1 day.; type: functional; design: unit not given here
# [29] = tested on: L1210; experiment: In vivo antitumor activity against L1210 leukemia in 5 mice measured as median survival range at 10 mg/kg; Value ranges from (10-15); type: functional, Mus musculus
# [30] = tested on: Mus musculus; experiment: Average weight change in mouse after treating with 20 mg/kg dose for 7 days.; type: functional; design: unit not given beside the values; conditions: 20 mg/kg
# [31] = tested on: L1210; experiment: In vivo antitumor activity against L1210 leukemia in 5 mice measured as median survival range at 20 mg/kg; Value ranges from (14-23); type: functional, Mus musculus
# [32] = tested on: Mus musculus; experiment: Average weight of the mouse after treating with 20 mg/kg dose for 7 days.; type: functional
# [33] = tested on: Mus musculus; experiment: Average weight of the mouse after treating with 40 mg/kg dose for 1 day.; type: functional; design: unit not given here
# [34] = tested on: L1210; experiment: In vivo antitumor activity against L1210 leukemia in 5 mice measured as T/C values; T/C = 23/9; type: functional, Mus musculus
# [35] = tested on: Mus musculus; experiment: Average weight of the mouse after treating with 40 mg/kg dose for 7 day.; type: functional
# [36] = tested on: Mus musculus; experiment: Average weight of the mouse after treating with 10 mg/kg dose for 1 day.; type: functional; design: unit not given here
# [37] = tested on: L1210; experiment: In vivo antitumor activity against L1210 leukemia in 5 mice measured as median survival range at 40 mg/kg; Value ranges from(15-23); type: functional, Mus musculus
# [38] = tested on: L1210; experiment: In vivo antitumor activity against L1210 leukemia in 17 mice measured as T/C values; T/C = 17/9; type: functional, Mus musculus
# [39] = tested on: L1210; experiment: In vivo antitumor activity against L1210 leukemia in 5 mice measured as Increased life span at 40 mg/kg.; type: functional; conditions: Mus musculus
# [40] = tested on: L1210; experiment: In vivo antitumor activity against L1210 leukemia in 5 mice measured as median survival range at 10 mg/kg; Value ranges from (13-18).; type: functional, Mus musculus
# [41] = tested on: Mus musculus; experiment: Average weight of the mouse after treating with 10 mg/kg dose for 7 day.; type: functional
# [42] = tested on: L1210; experiment: In vivo antitumor activity against L1210 leukemia in 16 mice measured as T/C values; T/C = 16/9; type: functional, Mus musculus
# [43] = tested on: Mus musculus; experiment: Average weight of the mouse after treating with 60 mg/kg dose for 1 day.; type: functional
# [44] = tested on: L1210; experiment: In vivo anti tumor activity against L1210 leukemia in 10 mice measured as median survival range at 60 mg/kg; Value ranges from(7-24); type: functional, Mus musculus
# [45] = tested on: L1210; experiment: In vivo anti tumor activity against L1210 leukemia in 10 mice measured as median survival range at 30 mg/kg; Value ranges from(11-17).; type: functional, Mus musculus
# [46] = tested on: L1210; experiment: In vivo anti tumor activity against L1210 leukemia in 10 mice measured as Increased life span at 60 mg/kg.; type: functional; conditions: Mus musculus
# [47] = tested on: L1210; experiment: In vivo antitumor activity against L1210 leukemia in 10 mice measured as median survival range at 15 mg/kg; Value ranges from(15-20); type: functional, Mus musculus
# [48] = tested on: L1210; experiment: In vivo anti tumor activity against L1210 leukemia in 10 mice measured as Increased life span at 30 mg/kg.; type: functional; conditions: Mus musculus
# [49] = tested on: L1210; experiment: In vivo anti tumor activity against L1210 leukemia in 5 mice measured as Increased life span.; type: functional, Mus musculus
smiles,measurement,setting,value
CN(Cc1cnc2nc(N)nc(N)c2n1)c1ccc(C(=O)N[C@@H](CCC(=O)O)C(=O)O)cc1 [METHOTREXATE],Range,[1],22
same,ILS,[2],77%
same,ILS,[3],88%
same,Weight change,[4],0.6
same,ILS,[5],100%
same,T/C,[6],9
same,Weight change,[7],1.3
same,Range,[8],23
same,T/C,[9],9
same,Weight change,[10],2.1
same,T/C,[11],9
same,Range,[12],28
CN(Cc1cnc2nc(N)nc(N)c2n1)c1ccc(C(=O)NC(CCC(=O)OCc2ccccc2)C(=O)OCc2ccccc2)cc1 (configuration not stated),Average weight,[13],25.8
same,Range,[14],22
same,Range,[15],14
same,Weight change,[16],0.4
same,ILS at 15 mg/kg,[17],33%
same,Average weight,[18],25.6
same,Weight change,[19],1.6
same,ILS at 30 mg/kg,[20],100%
same,T/C,[21],9
same,T/C,[22],9
CCCCCOC(=O)CCC(NC(=O)c1ccc(N(C)Cc2cnc3nc(N)nc(N)c3n2)cc1)C(=O)OCCCCC (configuration not stated),ILS at 20 mg/kg,[23],55%
same,ILS at 10 mg/kg,[24],33%
same,Range,[25],18
same,T/C,[26],14
same,T/C,[27],12
same,Average weight,[28]; 20 mg/kg,21.5 and 20.8
same,Range,[29],15
same,Weight change,[30],0.6 and 0.4
Cc1ccc(C)c(COC(=O)CCC(NC(=O)c2ccc(N(C)Cc3cnc4nc(N)nc(N)c4n3)cc2)C(=O)OCc2cc(C)ccc2C)c1 (configuration not stated),ILS at 20 mg/kg,[23],111%
same,ILS at 10 mg/kg,[24],88%
same,Range,[31],23
same,Weight change,[32],0.7
same,Average weight,[33],20.7
same,T/C,[34],9
same,Weight change,[35],0.7
same,Average weight,[36],23
same,Range,[37],23
same,Average weight,[28],22
same,T/C,[38],9
same,ILS at 40 mg/kg,[39],155%
same,Range,[40],18
same,Weight change,[41],1.6
CCCCOC(=O)CCC(NC(=O)c1ccc(N(C)Cc2cnc3nc(N)nc(N)c3n2)cc1)C(=O)OCCCC (configuration not stated),T/C,[42],9
same,Average weight,[13],25.3
same,Average weight,[43],24.9
same,Weight change,[4],4.1
same,Range,[44],24
same,Range,[45],17
same,Weight change,[7],5.1
same,ILS at 60 mg/kg,[46],88%
same,Average weight,[18],26.1
same,Range,[47],20
same,ILS at 30 mg/kg,[48],66%
same,ILS,[49],77%
same,Weight change,[10],4.2
